{"source": "paper PMC3173978", "about": "“Kinetic Characterisation of Phosphofructokinase Purified from Setaria cervi: A Bovine Filarial Parasite” (Enzyme Research, 2011)", "key": {"[1]": {"system": "T1, S. cervi PFK (phosphofructokinase)", "T1 construct": "native enzyme purified to electrophoretic homogeneity from adult female worms (from buffalo peritoneal folds); subunit mass 90 kDa", "test": "coupled assay (aldolase/TPI/GDH, NADH oxidation at […] nm), Lineweaver-Burk", "assay_type": "biochemical, Setaria cervi", "conditions": "50 and 100 μM ATP, 3.3 mM Mg2+, pH 8.0"}, "[2]": {"target": "T1, S. cervi PFK (phosphofructokinase)", "test": "coupled assay (aldolase/TPI/GDH, NADH oxidation at […] nm), Lineweaver-Burk", "assay_type": "biochemical, Setaria cervi", "conditions": "competitive vs F-6-P, 0.1 mM ATP, 3.3 mM Mg2+, Tris-HCl pH 8.0"}}}
{"smiles": "O=P(O)(O)OC[C@H]1OC(O)(CO)[C@@H](O)[C@@H]1O", "note": "(stereo partly drawn) [F-6-P, D-fructose-6-phosphate]", "values": [{"measurement": "Km", "setting": "[1]", "result": 1050, "unit": "µM"}]}
{"smiles": "O=P(O)(O)OC[C@H]1OC(O)(COP(=O)(O)O)[C@@H](O)[C@@H]1O", "note": "(stereo partly drawn) [FDP, D-fructose-1,6-diphosphate]", "values": [{"measurement": "Ki", "setting": "[2]; aldolase in coupling system acts on FDP", "result": 0.18, "unit": "µM"}]}
{"smiles": "C=C(OP(=O)(O)O)C(=O)O", "note": "[PEP, phosphoenolpyruvate]", "values": [{"measurement": "Ki", "setting": "[2]", "result": 800, "unit": "µM"}]}
